Reference: PubChem BioAssay (NCI)
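All cell lines were grown in 96-well plates and treated with compound for 48 hours. Definition used: TGI = concentration required for complete inhibition of growth.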

Key:
Assay in all cases: NCI tumour cell line growth inhibition, 48 h
RXF-631 renal = tested on: RXF-631 renal
M19-MEL melanoma = tested on: M19-MEL melanoma
XF 498 CNS = tested on: XF 498 CNS
LXFL 529 NSCLC = tested on: LXFL 529 NSCLC
SNB-78 CNS = tested on: SNB-78 CNS
SN12K1 renal = tested on: SN12K1 renal
HOP-18 NSCLC = tested on: HOP-18 NSCLC
P388 leukemia = tested on: P388 leukemia
P388/ADR leukemia = tested on: P388/ADR leukemia

`COc1ccc(OC)c(NC(=O)C(=O)C(C(=O)c2ccccc2F)C2OC(=O)c3ccccc32)c1` (stereo not given) was tested. Which TGI (RXF-631 renal) did it give?
Its TGI is over 100 µM.

What about the TGI (M19-MEL melanoma) of the same compound?
Its TGI is over 100 µM.

What about the TGI (XF 498 CNS) of the same compound?
Its TGI is over 100 µM.

And the TGI (LXFL 529 NSCLC)?
The TGI was over 100 µM.

What about the TGI (SNB-78 CNS) of the same compound?
Its TGI is over 100 µM.

For `CC(=O)OC1CC2(O)C(CCC3(C)C(c4ccc(=O)oc4)CCC32O)C2(C)C1=CC(O)C1OC12` (stereo not given), which TGI (M19-MEL melanoma) is on record?
The TGI was 0.245 µM.

And the TGI (SN12K1 renal)?
The TGI was 0.139 µM.

And the TGI (HOP-18 NSCLC)?
The TGI was 0.385 µM.

And the TGI (P388 leukemia)?
Its TGI is 154 µM.

What about the TGI (P388/ADR leukemia) of the same compound?
Its TGI is 250 µM.

And the TGI (XF 498 CNS)?
The TGI was 0.201 µM.

What about the TGI (SNB-78 CNS) of the same compound?
The TGI was 0.279 µM.

How did the TGI (HOP-18 NSCLC) turn out when `c1c(N2CCOCC2)ssc1=[N+]1CCOCC1` was run?
Its TGI is over 100 µM.

And the TGI (LXFL 529 NSCLC)?
The TGI was over 100 µM.

What about the TGI (SNB-78 CNS) of the same compound?
The TGI was over 100 µM.
